# Experimental data published in publication PMC5218480 (PLoS ONE, 2017).
# Tested on: MV-4-11 cells
# Test: Gene expression microarray analysis (Affymetrix PrimeView) and GSEA
# Assay type: cell-based, human
# Parameters: RFU PODN (11730768_x_at) / Fold change /veh PODN (11730768_x_at) / RFU LINC00158 (11744669_a_at) / Fold change /veh LINC00158 (11744669_a_at) / RFU DUSP10 (11751237_a_at) / Fold change /veh DUSP10 (11751237_a_at) / RFU ID3 (11757404_x_at) / Fold change /veh ID3 (11757404_x_at) / RFU PLEKHG5 (11737974_s_at) / Fold change /veh PLEKHG5 (11737974_s_at) / RFU LRRC4B (11730491_at) / Fold change /veh LRRC4B (11730491_at) / RFU GIMAP4 (11747438_a_at) / Fold change /veh GIMAP4 (11747438_a_at) / RFU KRT8 (11758183_x_at) / Fold change /veh KRT8 (11758183_x_at) / RFU CNN1 (11734310_a_at) / Fold change /veh CNN1 (11734310_a_at) / RFU VPS37D (11726825_at) / Fold change /veh VPS37D (11726825_at) / RFU C10orf10 (11716522_x_at) / Fold change /veh C10orf10 (11716522_x_at) / RFU KIR2DL2 /// KIR2DL4 /// KIR2DL5A /// KIR2DL5B /// KIR2DS1 /// KIR2DS2 /// KIR2DS3 /// KIR2DS4 /// KIR3DL3 /// KIR3DL3 /// KIR3DS1 (11738374_at) / Fold change /veh KIR2DL2 /// KIR2DL4 /// KIR2DL5A /// KIR2DL5B /// KIR2DS1 /// KIR2DS2 /// KIR2DS3 /// KIR2DS4 /// KIR3DL3 /// KIR3DL3 /// KIR3DS1 (11738374_at) / RFU C1QL1 (11718748_at) / Fold change /veh C1QL1 (11718748_at) / RFU TMPRSS4 (11747572_a_at) / Fold change /veh TMPRSS4 (11747572_a_at) / RFU HAMP (11756126_x_at) / Fold change /veh HAMP (11756126_x_at) / RFU RNFT2 (11725882_a_at) / Fold change /veh RNFT2 (11725882_a_at) / RFU NR4A2 (11747474_a_at) / Fold change /veh NR4A2 (11747474_a_at) / RFU ABCC12 (11746883_a_at) / Fold change /veh ABCC12 (11746883_a_at) / RFU TMEM136 (11760407_x_at) / Fold change /veh TMEM136 (11760407_x_at) / RFU CLDN22 /// WWC2 (11732394_at) / Fold change /veh CLDN22 /// WWC2 (11732394_at) / RFU HLA-DPB1 (11760878_x_at) / Fold change /veh HLA-DPB1 (11760878_x_at) / RFU SPINT1 (11716480_a_at) / Fold change /veh SPINT1 (11716480_a_at) / RFU GAP43 (11754022_s_at) / Fold change /veh GAP43 (11754022_s_at) / RFU A4GNT (11735810_at) / Fold change /veh A4GNT (11735810_at) / RFU PRB3 (11715151_x_at) / Fold change /veh PRB3 (11715151_x_at) / RFU TUBB4B (11761932_at) / Fold change /veh TUBB4B (11761932_at) / RFU CAPN14 (11732068_a_at) / Fold change /veh CAPN14 (11732068_a_at) / RFU TMCC2 (11721928_a_at) / Fold change /veh TMCC2 (11721928_a_at) / RFU IRGQ (11745062_a_at) / Fold change /veh IRGQ (11745062_a_at) / RFU FAM174B (11720279_a_at) / Fold change /veh FAM174B (11720279_a_at) / RFU TMPRSS4 (11748680_a_at) / Fold change /veh TMPRSS4 (11748680_a_at) / RFU FAM212B (11763350_a_at) / Fold change /veh FAM212B (11763350_a_at) / RFU PLEKHG5 (11743358_a_at) / Fold change /veh PLEKHG5 (11743358_a_at) / RFU ZSCAN30 (11745921_a_at) / Fold change /veh ZSCAN30 (11745921_a_at) / RFU CMKLR1 (11741424_a_at) / Fold change /veh CMKLR1 (11741424_a_at) / RFU LOC101060620 /// MAPK8IP1 (11723275_at) / Fold change /veh LOC101060620 /// MAPK8IP1 (11723275_at) / RFU SPTSSB (11747773_x_at) / Fold change /veh SPTSSB (11747773_x_at) / RFU PRSS12 (11739890_at) / Fold change /veh PRSS12 (11739890_at) / RFU BIN1 (11741810_x_at) / Fold change /veh BIN1 (11741810_x_at) / RFU WNT11 (11732464_a_at) / Fold change /veh WNT11 (11732464_a_at) / RFU C10orf10 (11716521_a_at) / Fold change /veh C10orf10 (11716521_a_at) / RFU C5orf56 (11738089_at) / Fold change /veh C5orf56 (11738089_at) / RFU CYB561 (11721691_x_at) / Fold change /veh CYB561 (11721691_x_at) / RFU ANKRD19P (11752326_a_at) / Fold change /veh ANKRD19P (11752326_a_at) / RFU OR2T12 /// OR2T33 /// OR2T8 (11738714_s_at) / Fold change /veh OR2T12 /// OR2T33 /// OR2T8 (11738714_s_at) / RFU VCAN (11748164_a_at) / Fold change /veh VCAN (11748164_a_at) / RFU JSRP1 (11732532_at) / Fold change /veh JSRP1 (11732532_at) / RFU KRTAP10-11 (11738290_x_at) / Fold change /veh KRTAP10-11 (11738290_x_at) / RFU MYO3A (11730013_a_at) / Fold change /veh MYO3A (11730013_a_at) / RFU EBF3 (11725865_a_at) / Fold change /veh EBF3 (11725865_a_at) / RFU CAMK2N1 (11719241_x_at) / Fold change /veh CAMK2N1 (11719241_x_at) / RFU C5orf56 (11738088_a_at) / Fold change /veh C5orf56 (11738088_a_at) / RFU OLFML3 (11715873_a_at) / Fold change /veh OLFML3 (11715873_a_at) / RFU LOC100653217 /// NTM (11731650_a_at) / Fold change /veh LOC100653217 /// NTM (11731650_a_at) / RFU MAPK11 (11762145_a_at) / Fold change /veh MAPK11 (11762145_a_at) / RFU FIZ1 (11724087_x_at) / Fold change /veh FIZ1 (11724087_x_at) / RFU OASL (11726364_x_at) / Fold change /veh OASL (11726364_x_at) / RFU SOX15 (11748057_x_at) / Fold change /veh SOX15 (11748057_x_at) / RFU CD79A (11719716_a_at) / Fold change /veh CD79A (11719716_a_at) / RFU HIST1H1D (11736915_at) / Fold change /veh HIST1H1D (11736915_at) / RFU CASKIN2 (11723855_a_at) / Fold change /veh CASKIN2 (11723855_a_at) / RFU LOC730098 (11760151_x_at) / Fold change /veh LOC730098 (11760151_x_at) / RFU OR4N2 (11742367_at) / Fold change /veh OR4N2 (11742367_at) / RFU PRRT2 (11749266_a_at) / Fold change /veh PRRT2 (11749266_a_at) / RFU SNX32 (11753110_a_at) / Fold change /veh SNX32 (11753110_a_at) / RFU CDHR5 (11726645_a_at) / Fold change /veh CDHR5 (11726645_a_at) / RFU RCAN1 (11760418_a_at) / Fold change /veh RCAN1 (11760418_a_at) / RFU FAM167A (11723789_a_at) / Fold change /veh FAM167A (11723789_a_at) / RFU FAM26E (11764081_at) / Fold change /veh FAM26E (11764081_at) / RFU ISYNA1 (11749810_s_at) / Fold change /veh ISYNA1 (11749810_s_at) / RFU ACY1 (11761880_at) / Fold change /veh ACY1 (11761880_at) / RFU 11764098_at / Fold change /veh 11764098_at / RFU SAMD14 (11745864_x_at) / Fold change /veh SAMD14 (11745864_x_at) / RFU NPB (11741838_a_at) / Fold change /veh NPB (11741838_a_at) / RFU TMPRSS6 (11731388_a_at) / Fold change /veh TMPRSS6 (11731388_a_at) / RFU KRTAP10-2 (11738614_at) / Fold change /veh KRTAP10-2 (11738614_at) / RFU ARHGAP8 /// PRR5-ARHGAP8 (11727945_x_at) / Fold change /veh ARHGAP8 /// PRR5-ARHGAP8 (11727945_x_at) / RFU KRTAP5-7 /// NADSYN1 (11734609_at) / Fold change /veh KRTAP5-7 /// NADSYN1 (11734609_at) / RFU RASL12 (11751679_a_at) / Fold change /veh RASL12 (11751679_a_at) / RFU CDKN2B (11736163_a_at) / Fold change /veh CDKN2B (11736163_a_at) / RFU PRF1 (11729649_at) / Fold change /veh PRF1 (11729649_at) / RFU, ZNF638 /// ZNF638-IT1 / Fold change vs veh, ZNF638 /// ZNF638-IT1 / RFU, PANK3 / Fold change vs veh, PANK3 / RFU, SH3YL1 / Fold change vs veh, SH3YL1 / RFU, ZEB2 / Fold change vs veh, ZEB2 / RFU, NRIP1 / Fold change vs veh, NRIP1 / RFU, PTTG1IP / Fold change vs veh, PTTG1IP / RFU, CAPN2 / Fold change vs veh, CAPN2 / RFU, MED14 / Fold change vs veh, MED14 / RFU, SNORA58 / Fold change vs veh, SNORA58 / RFU, C1orf63 / Fold change vs veh, C1orf63 / RFU, LRRFIP1 / Fold change vs veh, LRRFIP1 / RFU, NDUFAF7 / Fold change vs veh, NDUFAF7 / RFU, SLC12A2 / Fold change vs veh, SLC12A2 / RFU, IBTK / Fold change vs veh, IBTK / RFU, ESF1 / Fold change vs veh, ESF1 / Fold change vs veh, TMEM50B / RFU, TAOK1 / Fold change vs veh, TAOK1 / RFU, ACBD3 / Fold change vs veh, ACBD3 / RFU, TMA16 / Fold change vs veh, TMA16 / RFU, RWDD3 / Fold change vs veh, RWDD3 / RFU, BCAT1 / Fold change vs veh, BCAT1 / RFU, EDEM3 / Fold change vs veh, EDEM3 / RFU, TMEM33 / Fold change vs veh, TMEM33 / RFU, WDR75 / Fold change vs veh, WDR75 / RFU, AHCTF1 / Fold change vs veh, AHCTF1 / RFU, TFRC / Fold change vs veh, TFRC / RFU, ZDHHC17 / Fold change vs veh, ZDHHC17 / RFU, NOM1 / Fold change vs veh, NOM1 / RFU, ARL8B / Fold change vs veh, ARL8B / RFU, ZBTB11 / Fold change vs veh, ZBTB11 / RFU, TAMM41 / Fold change vs veh, TAMM41 / RFU, KIAA1704 /// LOC100996395 / Fold change vs veh, KIAA1704 /// LOC100996395 / RFU, ING1 / Fold change vs veh, ING1 / RFU, TRMT61B / Fold change vs veh, TRMT61B / RFU, FUBP3 / Fold change vs veh, FUBP3 / RFU, TP53 / Fold change vs veh, TP53 / RFU, TNKS2 / Fold change vs veh, TNKS2 / RFU, ZFP14 / Fold change vs veh, ZFP14 / RFU, ACTR2 / Fold change vs veh, ACTR2 / RFU, PPP3R1 / Fold change vs veh, PPP3R1 / RFU, PIK3R1 / Fold change vs veh, PIK3R1 / RFU, HNRNPA1 / Fold change vs veh, HNRNPA1 / RFU, RNF170 / Fold change vs veh, RNF170 / RFU, ZNF28 / Fold change vs veh, ZNF28 / RFU, RNGTT / Fold change vs veh, RNGTT / RFU, OGT / Fold change vs veh, OGT / RFU, BRD1 / Fold change vs veh, BRD1 / RFU, MARS / Fold change vs veh, MARS / RFU, ZNF655 / Fold change vs veh, ZNF655 / RFU, FAHD1 / Fold change vs veh, FAHD1 / RFU, BDP1 / Fold change vs veh, BDP1 / RFU, LRRCC1 / Fold change vs veh, LRRCC1 / RFU, ARID1A / Fold change vs veh, ARID1A / RFU, ZNF146 / Fold change vs veh, ZNF146 / RFU, ZNF330 / Fold change vs veh, ZNF330 / RFU, GPN3 / Fold change vs veh, GPN3 / RFU, C9orf123 / Fold change vs veh, C9orf123 / RFU, N4BP2L2 / Fold change vs veh, N4BP2L2 / RFU, ARFIP1 / Fold change vs veh, ARFIP1 / RFU, FAM179B / Fold change vs veh, FAM179B / RFU, BCL10 / Fold change vs veh, BCL10 / RFU, UHRF1BP1L / Fold change vs veh, UHRF1BP1L / RFU, BET1 / Fold change vs veh, BET1 / RFU, CNOT2 / Fold change vs veh, CNOT2 / RFU, ZNF268 / Fold change vs veh, ZNF268 / Fold change vs veh, ZNF507 / RFU, DGCR2 / Fold change vs veh, DGCR2 / RFU, WDSUB1 / Fold change vs veh, WDSUB1 / Fold change vs veh, HSP90B1 /// MIR3652 / RFU, ADSS / Fold change vs veh, ADSS / RFU, GK / Fold change vs veh, GK / RFU, ZNF148 / Fold change vs veh, ZNF148 / RFU, TAF9 / Fold change vs veh, TAF9 / RFU, SLC1A5 / Fold change vs veh, SLC1A5 / RFU, SLMO2 / Fold change vs veh, SLMO2 / RFU, ABCC4 / Fold change vs veh, ABCC4 / RFU, LOC101060439 /// RAP1B / Fold change vs veh, LOC101060439 /// RAP1B / RFU, RFX7 / Fold change vs veh, RFX7 / RFU, GTPBP10 / Fold change vs veh, GTPBP10 / RFU, CNEP1R1 / Fold change vs veh, CNEP1R1 / RFU, BIVM-ERCC5 /// ERCC5 / Fold change vs veh, BIVM-ERCC5 /// ERCC5 / RFU, ILF3 / Fold change vs veh, ILF3 / RFU 11762660_at / Fold change /veh 11762660_at / RFU VCAN (11757783_s_at) / Fold change /veh VCAN (11757783_s_at) / RFU DDX43 (11728927_at) / Fold change /veh DDX43 (11728927_at) / RFU KRT8 (11758188_x_at) / Fold change /veh KRT8 (11758188_x_at) / RFU NKD1 (11759106_at) / Fold change /veh NKD1 (11759106_at) / RFU SRD5A1 (11742802_a_at) / Fold change /veh SRD5A1 (11742802_a_at) / RFU TPSAB1 /// TPSB2 (11721975_s_at) / Fold change /veh TPSAB1 /// TPSB2 (11721975_s_at) / RFU GSTM3 (11746129_a_at) / Fold change /veh GSTM3 (11746129_a_at) / RFU IL23R (11737362_x_at) / Fold change /veh IL23R (11737362_x_at) / RFU TMEM51 (11727254_a_at) / Fold change /veh TMEM51 (11727254_a_at) / RFU PIWIL2 (11732686_x_at) / Fold change /veh PIWIL2 (11732686_x_at) / RFU ORM1 (11744905_x_at) / Fold change /veh ORM1 (11744905_x_at) / RFU CCDC152 (11743942_at) / Fold change /veh CCDC152 (11743942_at) / RFU ECM1 (11717891_a_at) / Fold change /veh ECM1 (11717891_a_at) / RFU IL23R (11748794_a_at) / Fold change /veh IL23R (11748794_a_at) / RFU TNFAIP8L3 (11732012_x_at) / Fold change /veh TNFAIP8L3 (11732012_x_at) / RFU MBOAT4 (11741988_at) / Fold change /veh MBOAT4 (11741988_at) / RFU 11764193_at / Fold change /veh 11764193_at / RFU TMEM53 (11763286_at) / Fold change /veh TMEM53 (11763286_at) / RFU MAGEB2 (11727129_at) / Fold change /veh MAGEB2 (11727129_at) / RFU TMEM200A (11744735_a_at) / Fold change /veh TMEM200A (11744735_a_at) / RFU CCDC152 (11751479_a_at) / Fold change /veh CCDC152 (11751479_a_at) / RFU FAM211A (11726209_a_at) / Fold change /veh FAM211A (11726209_a_at) / RFU RGS16 (11746705_a_at) / Fold change /veh RGS16 (11746705_a_at) / RFU VCAN (11755009_s_at) / Fold change /veh VCAN (11755009_s_at) / RFU RHOB (11743442_s_at) / Fold change /veh RHOB (11743442_s_at) / RFU RGS16 (11720943_a_at) / Fold change /veh RGS16 (11720943_a_at) / RFU RGS16 (11720944_at) / Fold change /veh RGS16 (11720944_at) / RFU, VPS4B / Fold change vs veh, VPS4B / RFU, CREB1 / Fold change vs veh, CREB1 / RFU, DNAJC13 / Fold change vs veh, DNAJC13 / RFU, GNAQ / Fold change vs veh, GNAQ / RFU, CDK5R1 / Fold change vs veh, CDK5R1 / RFU, ZRANB3 / Fold change vs veh, ZRANB3 / RFU, CUL4A / Fold change vs veh, CUL4A / RFU, CCNY / Fold change vs veh, CCNY / RFU, UFL1 / Fold change vs veh, UFL1 / RFU, COG3 / Fold change vs veh, COG3 / RFU, DIAPH2 / Fold change vs veh, DIAPH2 / RFU, SKA2 / Fold change vs veh, SKA2 / RFU, AFF3 / Fold change vs veh, AFF3 / RFU, LMF1 / Fold change vs veh, LMF1 / RFU, IPO11 / Fold change vs veh, IPO11 / RFU, DFFB / Fold change vs veh, DFFB / RFU, FOXP1 / Fold change vs veh, FOXP1 / RFU, CARD8 / Fold change vs veh, CARD8 / RFU, STRN3 / Fold change vs veh, STRN3 / RFU, ADK / Fold change vs veh, ADK / RFU, RASSF2 / Fold change vs veh, RASSF2 / RFU, WIPF1 / Fold change vs veh, WIPF1 / RFU, LARP1B / Fold change vs veh, LARP1B / RFU, RASA1 / Fold change vs veh, RASA1 / RFU, RB1 / Fold change vs veh, RB1 / RFU, PPFIA1 / Fold change vs veh, PPFIA1 / RFU, MAT2A / Fold change vs veh, MAT2A / RFU, CCT5 / Fold change vs veh, CCT5 / RFU, WDR92 / Fold change vs veh, WDR92 / RFU, CUX1 / Fold change vs veh, CUX1 / RFU, TTC7A / Fold change vs veh, TTC7A / RFU, TMEM135 / Fold change vs veh, TMEM135 / RFU, DEPTOR / Fold change vs veh, DEPTOR / RFU, CPM / Fold change vs veh, CPM / RFU, DNAJB6 / Fold change vs veh, DNAJB6 / RFU, CACNA2D3 / Fold change vs veh, CACNA2D3 / RFU, DTX4 / Fold change vs veh, DTX4 / RFU, TFCP2 / Fold change vs veh, TFCP2 / RFU, GMCL1 /// GMCL1P1 / Fold change vs veh, GMCL1 /// GMCL1P1 / RFU, AEBP2 / Fold change vs veh, AEBP2 / RFU, SNHG1 /// SNORD22 /// SNORD25 /// SNORD26 /// SNORD27 /// SNORD28 /// SNORD29 /// SNORD31 / Fold change vs veh, SNHG1 /// SNORD22 /// SNORD25 /// SNORD26 /// SNORD27 /// SNORD28 /// SNORD29 /// SNORD31 / Fold change (Aza/veh), C12orf56 (ProbeSet 11735607_a_at) / Fold change (ACY-1035/veh), C12orf56 (ProbeSet 11735607_a_at) / Fold change (Aza/veh), FGFR1OP (ProbeSet 11751329_s_at) / Fold change (ACY-1035/veh), FGFR1OP (ProbeSet 11751329_s_at) / Fold change (Aza/veh), VPS36 (ProbeSet 11739960_a_at) / Fold change (ACY-1035/veh), VPS36 (ProbeSet 11739960_a_at) / RFU SYPL1 (11715823_x_at) / Fold change /veh SYPL1 (11715823_x_at) / RFU IGFBP7 (11715501_s_at) / Fold change /veh IGFBP7 (11715501_s_at) / RFU REEP3 (11722064_at) / Fold change /veh REEP3 (11722064_at) / RFU IGLL1 (11728026_x_at) / Fold change /veh IGLL1 (11728026_x_at): dose or concentration left out as unconfirmed
# Conditions: ProbeSet 11743882_a_at; LIST D
smiles,measurement,value
Nc1ncn([C@@H]2O[C@H](CO)[C@@H](O)[C@H]2O)c(=O)n1 [azacitidine],"Fold change vs veh, STRN3",0.74
